#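 Dose response: 5 concentrations. Exposure: 48 h. Format: 96-well plates. Endpoint: linear interpolation; highest concentration if not reached. At the TGI there is no net growth.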
# Key:
# Assay in all cases: growth of human tumour cells (NCI), 48 h
# 786-0 renal = test system: 786-0 renal
# A549 NSCLC = test system: A549 NSCLC
# ACHN renal = test system: ACHN renal
# BT-549 breast = test system: BT-549 breast
# CAKI-1 renal = test system: CAKI-1 renal
# CCRF-CEM leukemia = test system: CCRF-CEM leukemia
# COLO 205 colon = test system: COLO 205 colon
# DU-145 prostate = test system: DU-145 prostate
# EKVX NSCLC = test system: EKVX NSCLC
# HCC-2998 colon = test system: HCC-2998 colon
# HCT-116 colon = test system: HCT-116 colon
# HCT-15 colon = test system: HCT-15 colon
# HL-60(TB) leukemia = test system: HL-60(TB) leukemia
# HOP-62 NSCLC = test system: HOP-62 NSCLC
# HOP-92 NSCLC = test system: HOP-92 NSCLC
# HS 578T breast = test system: HS 578T breast
# HT29 colon = test system: HT29 colon
# IGROV1 ovarian = test system: IGROV1 ovarian
# K-562 leukemia = test system: K-562 leukemia
# KM12 colon = test system: KM12 colon
# LOX IMVI melanoma = test system: LOX IMVI melanoma
# M14 melanoma = test system: M14 melanoma
# MALME-3M melanoma = test system: MALME-3M melanoma
# MCF7 breast = test system: MCF7 breast
# MDA-MB-231 breast = test system: MDA-MB-231 breast
# MDA-MB-435 = test system: MDA-MB-435
# MDA-N = test system: MDA-N
# MOLT-4 leukemia = test system: MOLT-4 leukemia
# NCI-H226 lung = test system: NCI-H226 lung
# NCI-H23 lung = test system: NCI-H23 lung
# NCI-H460 lung = test system: NCI-H460 lung
# NCI-H522 lung = test system: NCI-H522 lung
# NCI/ADR-RES ovarian = test system: NCI/ADR-RES ovarian
# OVCAR-3 ovarian = test system: OVCAR-3 ovarian
# OVCAR-4 ovarian = test system: OVCAR-4 ovarian
# OVCAR-5 ovarian = test system: OVCAR-5 ovarian
# OVCAR-8 ovarian = test system: OVCAR-8 ovarian
# PC-3 prostate = test system: PC-3 prostate
# RPMI-8226 leukemia = test system: RPMI-8226 leukemia
# RXF 393 renal = test system: RXF 393 renal
# SF-268 CNS = test system: SF-268 CNS
# SF-295 CNS = test system: SF-295 CNS
# SF-539 CNS = test system: SF-539 CNS
# SK-MEL-2 melanoma = test system: SK-MEL-2 melanoma
# SK-MEL-28 melanoma = test system: SK-MEL-28 melanoma
# SK-MEL-5 melanoma = test system: SK-MEL-5 melanoma
# SK-OV-3 ovarian = test system: SK-OV-3 ovarian
# SN12C renal = test system: SN12C renal
# SNB-75 CNS = test system: SNB-75 CNS
# SR leukemia = test system: SR leukemia
# SW-620 colon = test system: SW-620 colon
# T-47D breast = test system: T-47D breast
# TK-10 renal = test system: TK-10 renal
# U251 CNS = test system: U251 CNS
# UACC-257 melanoma = test system: UACC-257 melanoma
# UACC-62 melanoma = test system: UACC-62 melanoma
compound,measurement,setting,value
Cc1nn(C(=O)c2ccccc2O)c2c1C(c1ccccc1O)SC(N)=N2 (stereo unspecified),TGI,786-0 renal,> 10 µM
same,TGI,A549 NSCLC,> 10 µM
same,TGI,ACHN renal,> 10 µM
same,TGI,BT-549 breast,> 10 µM
same,TGI,CAKI-1 renal,> 10 µM
same,TGI,CCRF-CEM leukemia,9.01 µM
same,TGI,COLO 205 colon,> 10 µM
same,TGI,DU-145 prostate,> 10 µM
same,TGI,EKVX NSCLC,> 10 µM
same,TGI,HCC-2998 colon,> 10 µM
same,TGI,HCT-116 colon,> 10 µM
same,TGI,HCT-15 colon,> 10 µM
same,TGI,HL-60(TB) leukemia,5.02 µM
same,TGI,HOP-62 NSCLC,> 10 µM
same,TGI,HOP-92 NSCLC,> 10 µM
same,TGI,HS 578T breast,> 10 µM
same,TGI,HT29 colon,> 10 µM
same,TGI,IGROV1 ovarian,> 10 µM
same,TGI,K-562 leukemia,> 10 µM
same,TGI,KM12 colon,> 10 µM
same,TGI,LOX IMVI melanoma,> 10 µM
same,TGI,M14 melanoma,> 10 µM
same,TGI,MALME-3M melanoma,> 10 µM
same,TGI,MCF7 breast,> 10 µM
same,TGI,MDA-MB-231 breast,> 10 µM
same,TGI,MDA-MB-435,> 10 µM
same,TGI,MDA-N,> 10 µM
same,TGI,MOLT-4 leukemia,> 10 µM
same,TGI,NCI-H226 lung,8.96 µM
same,TGI,NCI-H23 lung,> 10 µM
same,TGI,NCI-H460 lung,> 10 µM
same,TGI,NCI-H522 lung,> 10 µM
same,TGI,NCI/ADR-RES ovarian,> 10 µM
same,TGI,OVCAR-3 ovarian,> 10 µM
same,TGI,OVCAR-4 ovarian,> 10 µM
same,TGI,OVCAR-5 ovarian,> 10 µM
same,TGI,OVCAR-8 ovarian,> 10 µM
same,TGI,PC-3 prostate,> 10 µM
same,TGI,RPMI-8226 leukemia,8.19 µM
same,TGI,RXF 393 renal,> 10 µM
same,TGI,SF-268 CNS,> 10 µM
same,TGI,SF-295 CNS,> 10 µM
same,TGI,SF-539 CNS,3.53 µM
same,TGI,SK-MEL-2 melanoma,> 10 µM
same,TGI,SK-MEL-28 melanoma,> 10 µM
same,TGI,SK-MEL-5 melanoma,> 10 µM
same,TGI,SK-OV-3 ovarian,> 10 µM
same,TGI,SN12C renal,> 10 µM
same,TGI,SNB-75 CNS,> 10 µM
same,TGI,SR leukemia,5.4 µM
same,TGI,SW-620 colon,> 10 µM
same,TGI,T-47D breast,> 10 µM
same,TGI,TK-10 renal,> 10 µM
same,TGI,U251 CNS,> 10 µM
same,TGI,UACC-257 melanoma,> 10 µM
same,TGI,UACC-62 melanoma,> 10 µM

# — PubChem BioAssay (NCI)
